Experimental data reported in patent US20200095236A1, “ANTIBACTERIAL COMPOUNDS” (FORGE THERAPEUTICS, INC., priority 2017, published 2020).

Key:
[1] = biological target: E. coli LpxC (Escherichia coli, UniProt P0A725); assay: LpxC Binding Assay (Rapid Fire MS assay); assay type: biochemical
[2] = tested on: TLR-4 activity of A. baumannii culture supernatants; assay: TLR4 assay: TLR4 activity of A. baumannii culture supernatants in HEK-Blue-hTLR4 cells; assay type: cell-based; settings: Acinetobacter baumannii, HEK-Blue hTLR4, read-out: % TLR-4 activity
Method: The TLR4 assay measures activity of diluted filter-sterilized A. baumannii culture supernatants. The assay was performed as described in Lin et al, Mbio, 2012. Briefly, A. baumannii was passaged to mid log-phase in the presence of Forge LpxC inhibitors. Culture supernatants were harvested, filter-sterilized and diluted 1:1000. TLR4 activity of the supernatants was tested using HEK-Blue-hTLR4 cells (Invivogen) that carry NF-kB and AP-1 driven SEAP (secreted embryonic alkaline phosphatase) reporter gene.
Exemplary TLR4 assay data (% TLR-4 activity) for compounds in embodiments of the disclosure.

[3] = tested on: E. coli; assay: Bacterial susceptibility testing, MIC by broth microdilution (CLSI); assay type: cell-based; settings: Escherichia coli; broth microdilution, 35° C., 18-24 h; read-out: E. coli MIC
Method: (§1) Minimal inhibitory concentrations (MIC) were determined by the broth microdilution method in accordance with the Clinical and Laboratory Standards Institute (CLSI) guidelines. In brief, organism suspensions were adjusted to a 0.5 McFarland standard to yield a final inoculum between 3×10^5 and 7×10^5 colony-forming units (CFU)/mL. Drug dilutions and inocula were made in sterile, cation adjusted Mueller-Hinton Broth (Beckton Dickinson). An inoculum volume of 100 μL was added to wells containing 100 μL of broth with 2-fold serial dilutions of drug. All inoculated microdilution trays were incubated in ambient air at 35° C. for 18-24 h. Following incubation, the lowest concentration of the drug that prevented visible growth (OD600 nm<0.05) was recorded as the MIC. Performance of the assay was monitored by the use of laboratory quality-control strains and levofloxacin, a compound with a defined MIC spectrum, in accordance with CLSI guidelines.

[4] = tested on: K. pneumoniae; assay: as above; assay type: cell-based; settings: Klebsiella pneumoniae; broth microdilution, 35° C., 18-24 h; read-out: K. pneumoniae MIC
Method: as §1

E. coli LpxC, sequence (P0A725 whole entry): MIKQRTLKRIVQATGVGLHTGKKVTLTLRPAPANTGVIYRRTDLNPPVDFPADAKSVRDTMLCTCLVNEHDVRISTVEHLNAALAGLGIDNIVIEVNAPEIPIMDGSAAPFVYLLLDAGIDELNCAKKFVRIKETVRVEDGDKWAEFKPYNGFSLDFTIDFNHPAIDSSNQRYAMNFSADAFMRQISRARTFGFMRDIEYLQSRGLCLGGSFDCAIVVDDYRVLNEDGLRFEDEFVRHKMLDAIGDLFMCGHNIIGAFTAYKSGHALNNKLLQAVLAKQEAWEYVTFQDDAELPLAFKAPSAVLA

Work on `COCCc1ccc(C#Cc2ccc(CC(C(=O)NCC(F)F)c3nc[nH]c(=O)c3O)cc2)cc1` (stereo not drawn) [Compound 114, N-(2,2-difluoroethyl)-2-(5-hydroxy-6-oxo-1,6-dihydropyrimidin-4-yl)-3-(4-((4-(2-methoxyethyl)phenyl)ethynyl)phenyl) propanamide] yielded an IC50 [1] of 50 to 100 nM.
`Cc1nnc(NCC(Cc2ccc(C#Cc3ccc(CN4CCOCC4)cc3)cc2)c2nc[nH]c(=O)c2O)o1` (stereo not drawn) [Compound 87, 5-hydroxy-6-(1-((5-methyl-1,3,4-oxadiazol-2-yl)amino)-3-(4-((4-(morpholinomethyl)phenyl)ethynyl)phenyl)propan-2-yl)pyrimidin-4(3H)-one] was tested, and the IC50 [1] was 50 to 100 nM.
Compound `CO[C@H]1CCN(Cc2ccc(C#Cc3ccc(CC(C(=O)NCC(F)F)c4nc[nH]c(=O)c4O)cc3)cc2)C1` (stereo partly drawn) [Compound 105, N-(2,2-difluoroethyl)-2-(5-hydroxy-6-oxo-1,6-dihydropyrimidin-4-yl)-3-(4-((4-(((S)-3-methoxypyrrolidin-1-yl)methyl)phenyl)ethynyl)phenyl) propanamide] has an IC50 [1] of 50 to 100 nM.
With `CS(=O)(=O)NCC(Cc1ccc(C#Cc2ccc(CN3CCOCC3)cc2)cc1)c1nc[nH]c(=O)c1O` (stereo not drawn) [Compound 80, N-(2-(5-hydroxy-6-oxo-1,6-dihydropyrimidin-4-yl)-3-(4-((4-(morpholinomethyl)phenyl)ethynyl)phenyl)propyl) methanesulfonamide] the IC50 [1] was 100 to 1000 nM.
For `O=c1[nH]cnc(C(CNCCF)Cc2ccc(C#Cc3ccc(CN4CC5CCC(C4)O5)cc3)cc2)c1O` (stereo not drawn) [Compound 215, 6-(1-(4-((4-((8-oxa-3-azabicyclo[3.2.1]octan-3-yl)methyl)phenyl)ethynyl)phenyl)-3-((2-fluoroethyl)amino)propan-2-yl)-5-hydroxypyrimidin-4(3H)-one], the activity at 4 µg/mL [2] was 20 to 50%, the activity at 8 µg/mL [2] was 20 to 50% and the activity at 16 µg/mL [2] was < 20%. The IC50 [1] was 100 to 1000 nM.
`C[C@@H]1CN(Cc2ccc(C#Cc3ccc(CC(CNCCF)c4nc[nH]c(=O)c4O)cc3)cc2)C[C@@H](C)O1` (stereo partly drawn) [Compound 218, 6-(1-(4-((4-(((2R,6R)-2,6-dimethylmorpholino)methyl)phenyl)ethynyl)phenyl)-3-((2-fluoroethyl)amino)propan-2-yl)-5-hydroxypyrimidin-4(3H)-one] gave an IC50 [1] of 100 to 1000 nM.
`N#CC1CN(Cc2ccc(C#Cc3ccc(CC(C(=O)NCC(F)F)c4nc[nH]c(=O)c4O)cc3)cc2)C1` (stereo not drawn) [Compound 149, 3-(4-((4-((3-cyanoazetidin-1-yl)methyl)phenyl)ethynyl)phenyl)-N-(2,2-difluoroethyl)-2-(5-hydroxy-6-oxo-1,6-dihydropyrimidin-4-yl)propanamide] was tested, and the IC50 [1] was < 10 nM.
`C[C@H]1CN(Cc2ccc(C#Cc3ccc(CC(CNCCF)c4nc[nH]c(=O)c4O)cc3)cc2)C[C@H](C)O1` (stereo partly drawn) [Compound 79, 6-(1-(4-((4-(((2S,6S)-2,6-dimethylmorpholino)methyl)phenyl)ethynyl)phenyl)-3-((2-fluoroethyl)amino)propan-2-yl)-5-hydroxypyrimidin-4(3H)-one] gave an IC50 [1] of 100 to 1000 nM.
`O=c1[nH]cnc(CCc2ccc(C#Cc3ccc(CNC4CC(O)C4)cc3)cc2)c1O` (stereo not drawn) [Compound 243, 5-hydroxy-6-(4-((4-(((3-hydroxycyclobutyl)amino)methyl)phenyl)ethynyl)phenethyl)pyrimidin-4(3H)-one] was tested, and the IC50 [1] was 10 to 50 nM.
In the case of `COCCNC(=O)C(Cc1ccc(C#Cc2ccc(CN3CCOCC3)cc2)cc1)c1nc[nH]c(=O)c1O` (stereo not drawn) [Compound 153, 2-(5-hydroxy-6-oxo-1,6-dihydropyrimidin-4-yl)-N-(2-methoxyethyl)-3-(4-((4-(morpholinomethyl)phenyl)ethynyl)phenyl) propanamide], the activity at 4 µg/mL [2] is reported as > 80%, the activity at 8 µg/mL [2] is reported as 50 to 80% and the activity at 16 µg/mL [2] is reported as < 20%. The IC50 [1] was 10 to 50 nM.
For `O=c1[nH]cnc(C(CNCC(F)F)Cc2ccc(C#Cc3ccc(CN4CCOCC4)cc3)cc2)c1O` (stereo not drawn) [Compound 57, 6-(1-((2,2-difluoroethyl)amino)-3-(4-((4-(morpholinomethyl)phenyl)ethynyl)phenyl)propan-2-yl)-5-hydroxypyrimidin-4(3H)-one], the activity at 4 µg/mL [2] was > 80%, the activity at 8 µg/mL [2] was 50 to 80% and the activity at 16 µg/mL [2] was 20 to 50%. It also gave an IC50 [1] of 100 to 1000 nM.
With `C=CCNCC(Cc1ccc(C#Cc2ccc(CN3CCOCC3)cc2)cc1)c1nc[nH]c(=O)c1O` (stereo not drawn) [Compound 56, 6-(1-(allylamino)-3-(4-((4-(morpholinomethyl)phenyl)ethynyl)phenyl)propan-2-yl)-5-hydroxypyrimidin-4(3H)-one] the IC50 [1] was 10 to 50 nM.
With `O=c1[nH]cnc(CCc2ccc(C#Cc3cccc(Cl)c3)cc2)c1O` [Compound 248, 6-(4-((3-chlorophenyl)ethynyl)phenethyl)-5-hydroxypyrimidin-4(3H)-one] the MIC [3] was > 32 µg/mL, the MIC [4] was > 32 µg/mL and the IC50 [1] was 100 to 1000 nM.
For `N#CC1CN(Cc2ccc(C#Cc3ccc(CC(CNCCF)c4nc[nH]c(=O)c4O)cc3)cc2)C1` (stereo not drawn) [Compound 209, 1-(4-((4-(3-((2-fluoroethyl)amino)-2-(5-hydroxy-6-oxo-1,6-dihydropyrimidin-4-yl)propyl)phenyl)ethynyl)benzyl) azetidine-3-carbonitrile], the IC50 [1] was 10 to 50 nM.
`O=C(NC1CC(F)(F)C1)C(Cc1ccc(C#Cc2ccc(CN3CCOCC3)cc2)cc1)c1nc[nH]c(=O)c1O` (stereo not drawn) [Compound 154, N-(3,3-difluorocyclobutyl)-2-(5-hydroxy-6-oxo-1,6-dihydropyrimidin-4-yl)-3-(4-((4-(morpholinomethyl)phenyl)ethynyl)phenyl) propanamide] gave an IC50 [1] of 50 to 100 nM.
With `N#CC1CN(Cc2ccc(C#Cc3ccc(CC(C(=O)NCCF)c4nc[nH]c(=O)c4O)cc3)cc2)C1` (stereo not drawn) [Compound 165, 3-(4-((4-((3-cyanoazetidin-1-yl)methyl)phenyl)ethynyl)phenyl)-N-(2-fluoroethyl)-2-(5-hydroxy-6-oxo-1,6-dihydropyrimidin-4-yl)propanamide] the IC50 [1] was < 10 nM.
In the case of `CO[C@@H]1CCN(Cc2ccc(C#Cc3ccc(CC(C(=O)NCC(F)F)c4nc[nH]c(=O)c4O)cc3)cc2)C1` (stereo partly drawn) [Compound 106, N-(2,2-difluoroethyl)-2-(5-hydroxy-6-oxo-1,6-dihydropyrimidin-4-yl)-3-(4-((4-(((R)-3-methoxypyrrolidin-1-yl)methyl)phenyl)ethynyl)phenyl) propanamide], the activity at 4 µg/mL [2] is reported as 50 to 80%, the activity at 8 µg/mL [2] is reported as 50 to 80% and the activity at 16 µg/mL [2] is reported as 20 to 50%. It also gave an IC50 [1] of 100 to 1000 nM.
For `COC1CN(Cc2ccc(C#Cc3ccc(CC(C(=O)NCC(F)F)c4nc[nH]c(=O)c4O)cc3)cc2)C1` (stereo not drawn) [Compound 109, N-(2,2-difluoroethyl)-2-(5-hydroxy-6-oxo-1,6-dihydropyrimidin-4-yl)-3-(4-((4-((3-methoxyazetidin-1-yl)methyl)phenyl)ethynyl)phenyl) propanamide], the IC50 [1] was 10 to 50 nM.
Work on `N#CCC1CCN(Cc2ccc(C#Cc3ccc(CC(C(=O)NCC(F)F)c4nc[nH]c(=O)c4O)cc3)cc2)CC1` (stereo not drawn) [Compound 152, 3-(4-((4-((4-(cyanomethyl)piperidin-1-yl)methyl)phenyl)ethynyl)phenyl)-N-(2,2-difluoroethyl)-2-(5-hydroxy-6-oxo-1,6-dihydropyrimidin-4-yl)propanamide] yielded an IC50 [1] of 100 to 1000 nM.
`O=c1[nH]cnc(CCc2ccc(C#Cc3ccc(CN4CCOCC4)cc3)c(F)c2)c1O` [Compound 98, 6-(3-fluoro-4-((4-(morpholinomethyl)phenyl)ethynyl)phenethyl)-5-hydroxypyrimidin-4(3H)-one] was tested, and the IC50 [1] was < 10 nM.
`O=c1[nH]cnc(C(CNCCF)Cc2ccc(C#Cc3ccc(CO)cc3)cc2)c1O` (stereo not drawn) [Compound 195, 6-(1-((2-fluoroethyl)amino)-3-(4-((4-(hydroxymethyl)phenyl)ethynyl)phenyl)propan-2-yl)-5-hydroxypyrimidin-4(3H)-one] was tested, and the activity at 4 µg/mL [2] was 50 to 80%, the activity at 8 µg/mL [2] was < 20% and the activity at 16 µg/mL [2] was < 20%. It also gave an IC50 [1] of 100 to 1000 nM.
“N-(2,2-difluoroethyl)- 2-(5-hydroxy-6-oxo- 1,6-dihydropyrimidin- 4-yl)-3-(4-((4- (hydroxymethyl) phenyl)ethynyl)phenyl) propanamide [Compound 108]” was tested, and the IC50 [1] was 10 to 50 nM.
Work on `O=c1[nH]cnc(C(CNCCF)Cc2ccc(C#Cc3ccc(CNC4CCOC4)cc3)cc2)c1O` (stereo not drawn) [Compound 198, 6-(1-((2-fluoroethyl)amino)-3-(4-((4-(((tetrahydrofuran-3-yl)amino)methyl)phenyl)ethynyl)phenyl)propan-2-yl)-5-hydroxypyrimidin-4(3H)-one] yielded an IC50 [1] of 100 to 1000 nM.
In the case of `O=C1CCCN1Cc1ccc(C#Cc2ccc(CC(CNCCF)c3nc[nH]c(=O)c3O)cc2)cc1` (stereo not drawn) [Compound 55, 6-(1-((2-fluoroethyl)amino)-3-(4-((4-((2-oxopyrrolidin-1-yl)methyl)phenyl)ethynyl)phenyl)propan-2-yl)-5-hydroxypyrimidin-4(3H)-one], the activity at 4 µg/mL [2] is reported as > 80%, the activity at 8 µg/mL [2] is reported as 20 to 50% and the activity at 16 µg/mL [2] is reported as 20 to 50%. It also gave an IC50 [1] of 10 to 50 nM.
Compound `O=c1[nH]cnc(C(CNCCF)Cc2ccc(C#Cc3ccc(CNC4COC4)cc3)cc2)c1O` (stereo not drawn) [Compound 207, 6-(1-((2-fluoroethyl)amino)-3-(4-((4-((oxetan-3-ylamino)methyl)phenyl)ethynyl)phenyl)propan-2-yl)-5-hydroxypyrimidin-4(3H)-one] has an IC50 [1] of 50 to 100 nM.
